From patent publication US20020155443A1, “Metal binding DNA interactive compounds” (priority 2000, published 2002)

Experiments:
[1] = test system: B16 murine melanoma cells; experiment: Growth inhibition of B16 murine melanoma cells, MTT assay; format: cell-based; details: Mus musculus, B16, read-out: IC50, growth inhibition
Experimental: The growth inhibitory activities of bis(propargylic) sulfone crown ethers 2.47 and 2.48 against B16 murine melanoma cells were determined calorimetrically with an MTT assay conducted by the Institute for Drug Development at the Cancer Research and Therapy Center in San Antonio, Tex.

Form I DNA = experiment: Cleavage of Form I DNA under mildly alkaline conditions; format: biochemical; details: mildly alkaline (pH 8.5) conditions
Description: It is believed that the DNA damage due to 2.12 is insensitive to either the addition of radical scavengers or the exclusion of oxygen. Additionally, treatment of a methanolic solution of 2.12 with aqueous NaOH led to the production of the bis(enol ether) 2.13 as depicted in FIG. 4.

| melting point [°C] | Structure (SMILES) | further results |
| --- | --- | --- |
| 176.5 to 177.5 | O=S1(=O)CC#CCOc2ccccc2OCC#CC1 [Compound 2.10] | – |
| – | C1#CCOCCOCCOCCOCCOCCOCC#C/C=C\1 [Compound 4.7] | IC50 [1]: 68 µM |
| 79.5 to 80.5 | CCOC(=O)c1cccc(CS(=O)(=O)CC#CCO)c1 [Compound 3.3] | – |
| – | O=S1(=O)CC#CCOCCOCCOCCOCC#CC1 [Compound 2.12] | cleavage of Form I DNA (Form I DNA): dose-dependent cleavage |
